These results are taken from the OPERA property sets (Mansouri et al. 2018).

SMILES strings stand for the structures. In brackets after ≈: the same amount, converted by molar mass.

Details in one series: not given
Compound `COc1c2ccoc2cc2oc(=O)ccc12` showed a logP of 1.93. `CCCCOC(=O)c1ccccc1C(=O)OCCCC` displayed a logP of 4.5. As to `CC(C)N(C(=O)COc1nnc(C(F)(F)F)s1)c1ccc(F)cc1`, the logP was determined as 3.2. Same read-out and setting: in the case of `OCc1ccc(F)cc1` it was 1.36. Same read-out and setting: next, `CCOC1OC2OC3(C)CCC4C(C)C(OC5OC(C(=O)O)C(O)C(O)C5O)CC(C1C)C24OO3` (stereo not given): 0.61. In turn, `CCCCn1ccc(=O)c(O)c1` gave a logP of 0.72. The compound `CCCCC(O)CCC` (stereo not given) had a logP of 2.68. Still for that read-out and setting: next, `N#CCC#N`: -0.6; `CC1(C)Cc2cccc([N+](=O)[O-])c2O1`: 3.33.

`CCC(=O)OCC1OC(n2cnc3c(OC)ncnc32)C(OC(=O)CC)C1OC(=O)CC` (stereo not given): the logP amounted to 2.75. On the same count and under the same terms, in the case of `ClC1=C(Cl)C2(Cl)C3C(Cl)C(Cl)(Cl)CC3C1(Cl)C2(Cl)Cl` (stereo not given) it was 6.2. On the same count and under the same terms, next, `CNCCC=C1c2ccccc2CCc2ccccc21`: 4.51. Compound `O=P(O)(O)CCCl` gave a log partition coefficient (logP) of -0.22. The same measure, in the same setting: in the case of `CCCCCCOC(=O)c1ccc(N)cc1` it was 3.96. Still for that read-out and setting: in the case of `COc1cc2nc(N3CCN(C(=O)C4COc5ccccc5O4)CC3)nc(N)c2cc1OC` (stereo not given) it was 3.3.

The same series, now with this note: 20 °C.
On to `COP(=O)(OC)OC(=CCl)c1cc(Cl)c(Cl)cc1Cl`, for which the solubility was determined as 0.0301 mM (≈ 0.011 mg/mL). In other words, the double-digit micromolar range. On to `CC(C)(CO)[N+](=O)[O-]`, for which the solubility stood at 29400 mM (≈ 3500 mg/mL). For `CC(CO)(CO)[N+](=O)[O-]`, the solubility was 5920 mM (≈ 800 mg/mL). Same read-out and setting: in the case of `Cc1cncc(C)c1` it was 308 mM (≈ 33 mg/mL). The same measure, in the same setting: in the case of `COCc1cnc(C2=NC(C)(C(C)C)C(=O)N2)c(C(=O)O)c1` (stereo not given) it was 14.5 mM (≈ 4.41 mg/mL).

Staying with this series, now noted: 23.0 °C.
For `c1ccc2c(c1)OCCO2`, the log10 OH rate constant (cm³/molecule/s) is -10.6. On the same count and under the same terms, in the case of `CC1=CCCC(C)=CCC(C)(C)C=CC1` it was -9.54; in that of `CC(C)CC(C)(C)O`, -10.9.

The same series, now with this note: 24.0 °C.
As to `CCOCCC(=O)OCC`, the log10 OH rate constant (cm³/molecule/s) is -10.6. Same read-out and setting: next, `c1ccc2ncccc2c1`: -10.9.

The same series, now with this note: 25 °C.
In turn, `CC(C)(C)NCC(O)COc1cccc2c1C[C@H](O)[C@H](O)C2` (stereo not given in full) displayed a solubility of 26.9 mM (≈ 8.33 mg/mL). In the case of `O=[N+]([O-])c1ccc2c3c(cccc13)CC2`, the solubility was determined as 0.00457 mM (≈ 0.00091 mg/mL). The same measure, in the same setting: in the case of `O=[N+]([O-])c1cccc2ccccc12` it was 0.053 mM (≈ 0.00918 mg/mL); in that of `CCCOC(=O)COc1ccc(Cl)cc1Cl`, 0.0562 mM (≈ 0.0148 mg/mL); in that of `Brc1ccc(I)cc1`, 0.0312 mM (≈ 0.00882 mg/mL). The same measure, in the same setting: in the case of `c1ccc2ncccc2c1` it was 47.3 mM (≈ 6.11 mg/mL). The compound `CCOc1nc(F)cc2nc(S(=O)(=O)Nc3c(Cl)cccc3C(=O)OC)nn12` came in with a solubility of 0.0372 mM (≈ 0.016 mg/mL). The same measure, in the same setting: next, `Brc1ccc(Br)c(-c2cc(Br)c(Br)cc2Br)c1`: 1.88e-07 mM (≈ 1.03e-07 mg/mL). The same measure, in the same setting: next, `C=C(Cl)CCl`: 19.4 mM (≈ 2.15 mg/mL). For the compound `CC(C)CCO[N+](=O)[O-]`, the solubility worked out at 3.3 mM (≈ 0.44 mg/mL). Same read-out and setting: next, `O=C([O-])CF.[Na+]`: 11100 mM. On the same count and under the same terms, next, `Nc1ccc(Cc2ccc(N)cc2)cc1`: 5.04 mM (≈ 1 mg/mL); `CC(C)CCCCCOC(=O)c1ccccc1C(=O)OCCCCCC(C)C`: 0.00023 mM (≈ 9e-05 mg/mL); `CCOP(=O)(N=C1SCCS1)OCC`: 2.55 mM (≈ 0.65 mg/mL). `N#CCC#N` came in with a solubility of 2010 mM (≈ 133 mg/mL).

The compound `CC1(C)Cc2cccc([N+](=O)[O-])c2O1` displayed a solubility of 0.621 mM (≈ 0.12 mg/mL). On to `CON(C)C(=O)Nc1ccc(Cl)c(Cl)c1`, for which the solubility is 0.301 mM (≈ 0.075 mg/mL). Compound `CCS(=O)(=O)c1cccnc1S(=O)(=O)NC(=O)Nc1nc(OC)cc(OC)n1` gave a solubility of under 0.0232 mM. Still for that read-out and setting: in the case of `CNC1(c2ccccc2Cl)CCCCC1=O.Cl` (stereo not given) it was 729 mM; in that of `ClC1=C(Cl)C2(Cl)C3C4OC4C(Cl)C3C1(Cl)C2(Cl)Cl` (stereo not given), 0.000514 mM (≈ 0.0002 mg/mL).

The series is the same for the next values; noted with them: 25.0 °C.
Compound `CC(=O)C(C)C` displayed a log10 OH rate constant (cm³/molecule/s) of -11.5. The same measure, in the same setting: in the case of `c1ccc(Nc2ccccc2)cc1` it was -9.71; in that of `COC(=O)CCCC(=O)OC`, -11.5.

In turn, `FC(F)OC(F)(F)C(F)Cl` (stereo not given) yielded a log10 OH rate constant (cm³/molecule/s) of -13.9. Still for that read-out and setting: next, `CCC(CC)(CC)CC`: -11.3.

The compound `C=C(C)C(=O)OC` returned a log10 OH rate constant (cm³/molecule/s) of -10.6. The same measure, in the same setting: in the case of `ClCBr` it was -13.1. As to `CCCCCCBr`, the log10 OH rate constant (cm³/molecule/s) was -11.2. The compound `CCCBr` came in with a log10 OH rate constant (cm³/molecule/s) of -11.9. As for `CC/C=C\CCOC(C)=O`, the log10 OH rate constant (cm³/molecule/s) was -10.1. `CCC(C)(C)OC`: the log10 OH rate constant (cm³/molecule/s) is -11.3. Still for that read-out and setting: next, `FC(F)CC(F)(F)F`: -14.1. In the case of `O=CC(F)F`, the log10 OH rate constant (cm³/molecule/s) was -11.8. `OCCOCCO` came in with a log10 OH rate constant (cm³/molecule/s) of -10.5. Same read-out and setting: next, `CC12CCC(CC1)C(C)(C)O2`: -11.

The series is the same for the next values; noted with them: 26 °C.
With `Clc1cc2oc3cc(Cl)c(Cl)cc3c2cc1Cl`, the solubility was determined as 2.26e-06 mM (≈ 6.92e-07 mg/mL). This lies in the single-digit nanomolar range.

Staying with this series, now noted: 27.0 °C.
`Cc1ccco1` gave a log10 OH rate constant (cm³/molecule/s) of -10.2.

The same series, now with this note: 30 °C.
The compound `Nc1ccc([N+](=O)[O-])cc1` displayed a solubility of 5.27 mM (≈ 0.728 mg/mL).

`Brc1ccccc1`: the solubility is 2.84 mM (≈ 0.446 mg/mL).

The series is the same for the next values; noted with them: pH 7.4.
`N[C@@H](Cc1ccc(N(CCCl)CCCl)cc1)C(=O)O` yielded a logD of -0.52.
